Measurements: patent US20250026741A1, “INHIBITORS OF THE ONCOGENIC SHP2 PHOSPHATASE AND USES THEREOF” (Sanford Burnham Prebys Medical Discovery Institute, priority 2021, published 2025)
pIC50: −log10 of the molar value.

Legend:
[1] = biological target: SHP2-E76K (Homo sapiens (Human), UniProt Q06124, E76K); test: Time-dependent inhibition (preincubation) assay; format: biochemical; details: preincubation 1, 5, 10, 20, or 60 min with SHP2-E76K
Method: PTPs contain a highly nucleophilic cysteine that is essential for catalytic activity, but is susceptible to oxidation and covalent modifications which abrogate its nucleophilic function and phosphatase activity. Because the methylenebenzothiophenone moiety of our inhibitors could potentially act as a Michael acceptor and thus covalently bind to the catalytic cysteine, we tested whether the observed inhibition of SHP2 was dependent on the preincubation time of inhibitor and enzyme. An irreversible covalent inhibitor may show time-dependent inhibition, with increased potency at longer incubation times. Conversely, the potency of a non-covalent inhibitor is expected to be insensitive to the time it is incubated with the enzyme. To test for time-dependent inhibition, #01 (#01) at 10 different concentrations was preincubated with SHP2-E76K for 1, 5, 10, 20, or 60 min, before the DiFMUP substrate was added to the reaction mixture and initial rates were recorded (FIG. 2C).

[2] = biological target: SHP2cat (Homo sapiens (Human), UniProt Q06124); test: Protein thermal shift (PTS) assay; format: binding; details: vs vehicle (DMSO) control
SHP2cat, sequence (Q06124 248-527): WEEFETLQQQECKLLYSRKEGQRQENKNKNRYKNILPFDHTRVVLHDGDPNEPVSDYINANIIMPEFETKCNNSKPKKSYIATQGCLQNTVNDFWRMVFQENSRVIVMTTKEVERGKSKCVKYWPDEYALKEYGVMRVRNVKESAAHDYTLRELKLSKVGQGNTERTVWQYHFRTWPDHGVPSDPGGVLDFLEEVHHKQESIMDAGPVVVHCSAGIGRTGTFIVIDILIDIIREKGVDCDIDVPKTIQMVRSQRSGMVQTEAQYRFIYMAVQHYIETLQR
Source text: We confirmed specific and dose-dependent binding of inhibitors to SHP2 by protein thermal shift, which monitors the thermal stability of a target protein in vitro. […] In addition, we confirmed the inhibitory activity of several furanylbenzamide inhibitors, including the top two compounds #02 and #01, in SHP2cat inhibition assays using the alternative substrate 3-O-methylfluorescein phosphate (OMFP), which features a peak fluorescence emission that is red-shifted by […] compared to DiFMUP. The Km value of OMFP for SHP2cat was determined to be 50 μM. An OMFP fluorescence intensity-based assay was used to perform inhibitor dose-response experiments and determine IC50 values.
Differential scanning fluorimetry (also known as protein thermal shift) measurements of SHP2cat were performed. #02 was spotted at different concentrations into MicroAmp®384-well real-time PCR plates (#4483285, Applied Biosystems, Waltham, MA) using an Echo 555 Liquid Handler. […] Plates were analyzed using a ViiA® 7 Real-Time PCR instrument (Applied Biosystems, Waltham, MA) and a 12 min temperature gradient with a temperature increase of 0.075° C./s. The melting temperature and thermal profiles were determined using Protein Thermal Shift™ Software v1.3 (Applied Biosystems, Waltham, MA).

[3] = test system: MOLM-13 AML cells (expressing WT SHP2); test: Cell viability assay (CellTiter-Glo), MOLM-13; format: cell-based; details: Homo sapiens, MOLM-13, 72 h, regular MOLM-13 cells, CRISPR comparison experiment
Method: Next, we performed an 11-day colony formation assay with TNBC cells treated with #02 or SHP099 at 5, 10, or 20 μM (FIG. 3D).
Finally, we evaluated the selectivity of our top two compounds, #01 and #02, on MOLM-13 AML cells in which SHP2 was depleted using CRISPR-Cas9 knock-out (KO). High-efficiency Cas9-editing MOLM-13 cells were generated by transducingMOLM-13 cells with a Cas9 lentiviral construct. Stable clones were tested for editing efficiency by performing TIDE analysis (45), and these MOLM13-Cas9 cells were transduced with a lentiviral construct containing an AAVS1 single guide RNA (sgRNA) and an mCherry reporter for bulk-sorting of cells with successful AAVS1 editing. […] Cells were treated with inhibitors at various concentrations (ranging from […] to 58 nM) or vehicle control (DMSO) for 72 h, before cell viability was assessed.
Viability of AML, esophageal carcinoma, and TF-1 cells was assessed using the ATP-depletion assay CellTiter-Glo® (Promega). Cells were harvested at 1×10^6/mL to 2×10^6 cells/mL with cell numbers determined by trypan blue using the Countess Cell counter (Thermo Scientific) and resuspended in culture media. […] Luminescence was read on a Tecan Spark® Multimode Microplate Reader and data analyzed using Graph Pad Prism software. […]

SHP2-E76K, sequence (Q06124 whole entry E76K): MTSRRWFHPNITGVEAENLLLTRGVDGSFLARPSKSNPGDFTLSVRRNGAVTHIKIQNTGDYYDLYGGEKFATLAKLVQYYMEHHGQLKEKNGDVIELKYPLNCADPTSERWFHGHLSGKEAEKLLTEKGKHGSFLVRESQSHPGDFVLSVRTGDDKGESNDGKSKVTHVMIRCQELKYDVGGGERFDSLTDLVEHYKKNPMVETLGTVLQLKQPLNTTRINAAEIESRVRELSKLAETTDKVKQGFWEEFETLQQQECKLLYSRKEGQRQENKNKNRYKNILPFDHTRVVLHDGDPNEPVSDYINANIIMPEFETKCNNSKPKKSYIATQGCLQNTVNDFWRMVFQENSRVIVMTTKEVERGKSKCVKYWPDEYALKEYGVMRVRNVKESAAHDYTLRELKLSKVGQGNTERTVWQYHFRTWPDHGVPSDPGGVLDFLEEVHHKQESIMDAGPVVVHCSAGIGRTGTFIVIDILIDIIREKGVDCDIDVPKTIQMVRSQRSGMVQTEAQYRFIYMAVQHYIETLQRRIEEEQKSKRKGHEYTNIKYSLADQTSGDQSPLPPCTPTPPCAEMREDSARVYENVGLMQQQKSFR

Structure (SMILES) | time dependence of inhibition [1] | change of SHP2cat melting temperature (Tm) [2] | pIC50 [3]
Nc1ccc(NC(=O)c2cc(-c3ccc(/C=C4\Sc5ccccc5C4=O)o3)ccc2O)cc1 [#01, (Z)—N-(4-Aminophenyl)-2-hydroxy-5-(5-((3-oxobenzo[b]thiophen-2(3H)-ylidene)methyl)furan-2-yl)benzamide] | not time-dependent |  | 
O=C(Nc1ccccc1)c1cc(-c2ccc(/C=C3\Sc4ccccc4C3=O)o2)ccc1O [#02, (Z)-2-hydroxy-5-(5-((3-oxobenzo[b]thiophen-2(3H)-ylidene)methyl)furan-2-yl)-N-phenylbenzamide] |  | dose-dependently increased the melting temperature | 4.82
